Results taken from PubChem BioAssay AID1745844 (Carcinogenic Potency Database (CPDB), 2022).
Values joined by “and” are separate entries in the source; they are usually repeats but may differ in a detail not shown here. Identical values can stand only once. Active and inactive are the calls of the source. How the calls were made is not given here.

Tested on: rodent lifetime carcinogenesis bioassay, tumor incidence TD50
Experiment: carcinogenic potency in animals, long-term in vivo studies, CPDB compilation (AID 1745844)

[Cl][Cd][Cl]
carcinogen call (hamster, strain Syrian Golden, females, inhaled, site: lung, lesion: one or several types, types not named, dosed 60 weeks, study length 76 weeks): negative (inactive)
carcinogen call (hamster, strain Syrian Golden, females, inhaled, site: lung, lesion: one or several types, types not named, dosed 64 weeks, study length 76 weeks): negative (inactive)
carcinogen call (hamster, strain Syrian Golden, males, inhaled, site: lung, lesion: one or several types, types not named, dosed 60 weeks, study length 102 weeks): negative (inactive)
carcinogen call (hamster, strain Syrian Golden, males, inhaled, site: lung, lesion: one or several types, types not named, dosed 64 weeks, study length 113 weeks): negative (inactive)
carcinogen call (mouse, strain NMRI, females, inhaled, site: lung, lesion: adenocarcinoma, dosed 42 weeks, study length 82 weeks): negative (inactive)
carcinogen call (mouse, strain NMRI, females, inhaled, site: lung, lesion: adenocarcinoma, dosed 69 weeks, study length 89 weeks): negative (inactive)
carcinogen call (mouse, strain NMRI, females, inhaled, site: lung, lesion: adenoma, dosed 42 weeks, study length 82 weeks): negative (inactive)
carcinogen call (mouse, strain NMRI, females, inhaled, site: lung, lesion: adenoma, dosed 69 weeks, study length 89 weeks): negative (inactive)
carcinogen call (mouse, strain NMRI, females, inhaled, site: lung, lesion: several types, types named in the paper, dosed 42 weeks, study length 82 weeks): negative (inactive)
carcinogen call (mouse, strain NMRI, females, inhaled, site: lung, lesion: several types, types named in the paper, dosed 69 weeks, study length 89 weeks): negative (inactive)
carcinogen call (rat, strain BOR:WISW (Wistar), females, in feed, site: kidney, lesion: one or several types, types not named, dosed 72 weeks, study length 72 weeks): negative (inactive)
carcinogen call (rat, strain BOR:WISW (Wistar), males, in feed, site: kidney, lesion: one or several types, types not named, dosed 72 weeks, study length 72 weeks): negative (inactive)
TD50 (rat, strain NBL/Cr, males, in drinking water, site: adrenal gland, lesion: pheochromocytoma, benign/malignant, dosed 102 weeks, study length 102 weeks): 686 mg/kg/day
TD50 (rat, strain NBL/Cr, males, in drinking water, site: kidney/pelvis, lesion: transitional-cell carcinoma, dosed 102 weeks, study length 102 weeks): 584 mg/kg/day
TD50 (rat, strain NBL/Cr, males, in drinking water, site: kidney, lesion: lipoma, dosed 102 weeks, study length 102 weeks): 584 mg/kg/day
TD50 (rat, strain NBL/Cr, males, in drinking water, site: kidney, lesion: malignant mesenchymal tumor, dosed 102 weeks, study length 102 weeks): 193 mg/kg/day
TD50 (rat, strain NBL/Cr, males, in drinking water, site: kidney, lesion: several types, types named in the paper, dosed 102 weeks, study length 102 weeks): 114 mg/kg/day
TD50 (rat, strain Wistar W.74, females, in feed, site: any site (literature study), lesion: benign tumor, dosed 104 weeks, study length 105 weeks): 44 mg/kg/day (inactive)
TD50 (rat, strain Wistar W.74, females, in feed, site: any site (literature study), lesion: malignant tumor, dosed 104 weeks, study length 105 weeks): 124 mg/kg/day (inactive)
TD50 (rat, strain Wistar W.74, females, in feed, site: any site (literature study), lesion: several types, types named in the paper, dosed 104 weeks, study length 105 weeks): 21.6 mg/kg/day (inactive)
carcinogen call (rat, strain Wistar W.74, females, in feed, site: liver, lesion: hepatoma, dosed 104 weeks, study length 105 weeks): negative (inactive)
TD50 (rat, strain Wistar W.74, males, in feed, site: adrenal gland, lesion: pheochromocytoma, dosed 104 weeks, study length 105 weeks): 1.33 mg/kg/day (inactive)
carcinogen call (rat, strain Wistar W.74, males, in feed, site: any site (literature study), lesion: benign tumor, dosed 104 weeks, study length 105 weeks): negative (inactive)
TD50 (rat, strain Wistar W.74, males, in feed, site: any site (literature study), lesion: malignant tumor, dosed 104 weeks, study length 105 weeks): 47.4 mg/kg/day (inactive)
carcinogen call (rat, strain Wistar W.74, males, in feed, site: any site (literature study), lesion: several types, types named in the paper, dosed 104 weeks, study length 105 weeks): negative (inactive)
carcinogen call (rat, strain Wistar W.74, males, in feed, site: liver, lesion: hepatoma, dosed 104 weeks, study length 105 weeks): negative (inactive)
TD50 (rat, strain Wistar, females, inhaled, site: lung, lesion: adenocarcinoma, dosed 26 weeks, study length 126 weeks): 0.206 mg/kg/day
TD50 (rat, strain Wistar, females, inhaled, site: lung, lesion: adenocarcinoma, dosed 78 weeks, study length 134 weeks): 0.0253 mg/kg/day
TD50 (rat, strain Wistar, females, inhaled, site: lung, lesion: adenosquamous carcinoma, dosed 78 weeks, study length 134 weeks): 0.106 mg/kg/day
TD50 (rat, strain Wistar, females, inhaled, site: lung, lesion: alveolar/bronchiolar adenoma, dosed 78 weeks, study length 134 weeks): 0.0495 mg/kg/day
TD50 (rat, strain Wistar, females, inhaled, site: lung, lesion: several types, types named in the paper, dosed 26 weeks, study length 126 weeks): 0.0645 mg/kg/day
TD50 (rat, strain Wistar, females, inhaled, site: lung, lesion: several types, types named in the paper, dosed 78 weeks, study length 134 weeks): 0.00971 mg/kg/day
TD50 (rat, strain Wistar, females, inhaled, site: lung, lesion: squamous-cell tumor, dosed 26 weeks, study length 126 weeks): 0.0998 mg/kg/day
carcinogen call (rat, strain Wistar, males, in feed, site: all sites, lesion: lymphocytic leukemia, dosed 77 weeks, study length 77 weeks): positive
TD50 (rat, strain Wistar, males, in feed, site: prostate, lesion: adenoma, dosed 77 weeks, study length 77 weeks): 56.9 mg/kg/day
TD50 (rat, strain Wistar, males, in feed, site: testis, lesion: interstitial-cell tumor, benign, dosed 77 weeks, study length 77 weeks): 31.6 mg/kg/day
TD50 (rat, strain Wistar, males, inhaled, site: adrenal gland, lesion: pheochromocytoma, benign/malignant, dosed 78 weeks, study length 134 weeks): 0.591 mg/kg/day
TD50 (rat, strain Wistar, males, inhaled, site: lung, lesion: adenocarcinoma, dosed 26 weeks, study length 130 weeks): 0.0294 mg/kg/day
TD50 (rat, strain Wistar, males, inhaled, site: lung, lesion: adenocarcinoma, dosed 78 weeks, study length 130 weeks): 0.00924 mg/kg/day
TD50 (rat, strain Wistar, males, inhaled, site: lung, lesion: adenocarcinoma, dosed 78 weeks, study length 134 weeks): 0.022 mg/kg/day
TD50 (rat, strain Wistar, males, inhaled, site: lung, lesion: adenoma, dosed 78 weeks, study length 134 weeks): 0.563 mg/kg/day
TD50 (rat, strain Wistar, males, inhaled, site: lung, lesion: adenosquamous carcinoma, dosed 78 weeks, study length 130 weeks): 0.165 mg/kg/day
TD50 (rat, strain Wistar, males, inhaled, site: lung, lesion: alveolar/bronchiolar adenoma, dosed 26 weeks, study length 130 weeks): 0.0521 mg/kg/day
TD50 (rat, strain Wistar, males, inhaled, site: lung, lesion: alveolar/bronchiolar adenoma, dosed 78 weeks, study length 130 weeks): 0.0804 mg/kg/day
TD50 (rat, strain Wistar, males, inhaled, site: lung, lesion: carcinoma, dosed 78 weeks, study length 134 weeks): 0.0127 mg/kg/day
TD50 (rat, strain Wistar, males, inhaled, site: lung, lesion: epidermoid carcinoma, dosed 78 weeks, study length 134 weeks): 0.0588 mg/kg/day
TD50 (rat, strain Wistar, males, inhaled, site: lung, lesion: muco-epidermoid carcinoma, dosed 78 weeks, study length 134 weeks): 0.315 mg/kg/day
TD50 (rat, strain Wistar, males, inhaled, site: lung, lesion: several types, types named in the paper, dosed 26 weeks, study length 130 weeks): 0.0106 mg/kg/day
TD50 (rat, strain Wistar, males, inhaled, site: lung, lesion: several types, types named in the paper, dosed 78 weeks, study length 130 weeks): 0.00611 mg/kg/day
TD50 (rat, strain Wistar, males, inhaled, site: lung, lesion: squamous-cell tumor, dosed 26 weeks, study length 130 weeks): 0.0521 mg/kg/day

COc1nn(CSP(=S)(OC)OC)c(=O)s1
carcinogen call (mouse, strain Charles River CD1, females, in feed, site: liver, lesion: hepatocellular adenoma, dosed 100 weeks, study length 100 weeks): negative (inactive)
TD50 (mouse, strain Charles River CD1, females, in feed, site: liver, lesion: hepatocellular carcinoma, dosed 100 weeks, study length 100 weeks): 184 mg/kg/day (inactive)
TD50 (mouse, strain Charles River CD1, females, in feed, site: liver, lesion: several types, types named in the paper, dosed 100 weeks, study length 100 weeks): 16200 mg/kg/day (inactive)
TD50 (mouse, strain Charles River CD1, males, in feed, site: liver, lesion: hepatocellular adenoma, dosed 100 weeks, study length 100 weeks): 17.2 mg/kg/day
TD50 (mouse, strain Charles River CD1, males, in feed, site: liver, lesion: hepatocellular carcinoma, dosed 100 weeks, study length 100 weeks): 21.8 mg/kg/day
TD50 (mouse, strain Charles River CD1, males, in feed, site: liver, lesion: several types, types named in the paper, dosed 100 weeks, study length 100 weeks): 6.04 mg/kg/day

COc1cc(OC)c2c3c(c(=O)oc2c1)CCC3
carcinogen call (rat, strain Fischer, males, by gavage, site: liver, lesion: one or several types, types not named, dosed 52 weeks, study length 87 weeks): negative (inactive)

Nc1ccccc1N
TD50 (mouse, strain CD-1 HaM/ICR, females, in feed, site: any site (literature study), lesion: several types, types named in the paper, dosed 77 weeks, study length 90 weeks): 676 mg/kg/day
TD50 (mouse, strain CD-1 HaM/ICR, females, in feed, site: liver, lesion: hepatoma, dosed 77 weeks, study length 90 weeks): 611 mg/kg/day
TD50 (mouse, strain CD-1 HaM/ICR, females, in feed, site: liver, lesion: several types, types named in the paper, dosed 77 weeks, study length 90 weeks): 507 mg/kg/day
TD50 (mouse, strain CD-1 HaM/ICR, females, in feed, site: lung, lesion: several types, types named in the paper, dosed 77 weeks, study length 90 weeks): 2260 mg/kg/day (inactive)
TD50 (mouse, strain CD-1 HaM/ICR, males, in feed, site: any site (literature study), lesion: several types, types named in the paper, dosed 77 weeks, study length 86 weeks): 1970 mg/kg/day
TD50 (mouse, strain CD-1 HaM/ICR, males, in feed, site: liver, lesion: hepatoma, dosed 77 weeks, study length 86 weeks): 921 mg/kg/day and 1110 mg/kg/day
TD50 (mouse, strain CD-1 HaM/ICR, males, in feed, site: liver, lesion: several types, types named in the paper, dosed 77 weeks, study length 86 weeks): 921 mg/kg/day
TD50 (mouse, strain CD-1 HaM/ICR, males, in feed, site: lung, lesion: several types, types named in the paper, dosed 77 weeks, study length 86 weeks): 3210 mg/kg/day (inactive)
TD50 (rat, strain Charles River CD (Sprague-Dawley), males, in feed, site: liver, lesion: hepatoma, dosed 77 weeks, study length 107 weeks): 248 mg/kg/day and 315 mg/kg/day
TD50 (rat, strain Charles River CD (Sprague-Dawley), males, in feed, site: liver, lesion: several types, types named in the paper, dosed 77 weeks, study length 107 weeks): 248 mg/kg/day

CCCCC/C=N/N(C)C=O
TD50 (mouse, strain Swiss, females, by gavage, site: liver, lesion: hepatocellular carcinoma, dosed 52 weeks, study length 122 weeks): 180 mg/kg/day
TD50 (mouse, strain Swiss, females, by gavage, site: liver, lesion: hepatoma, benign, dosed 52 weeks, study length 122 weeks): 23.3 mg/kg/day
TD50 (mouse, strain Swiss, females, by gavage, site: liver, lesion: several types, types named in the paper, dosed 52 weeks, study length 122 weeks): 19.9 mg/kg/day
TD50 (mouse, strain Swiss, females, by gavage, site: lung, lesion: adenocarcinoma, dosed 52 weeks, study length 122 weeks): 8.73 mg/kg/day
TD50 (mouse, strain Swiss, females, by gavage, site: lung, lesion: adenoma, dosed 52 weeks, study length 122 weeks): 4.68 mg/kg/day
TD50 (mouse, strain Swiss, females, by gavage, site: lung, lesion: several types, types named in the paper, dosed 52 weeks, study length 122 weeks): 2.96 mg/kg/day
TD50 (mouse, strain Swiss, males, by gavage, site: liver, lesion: hepatocellular carcinoma, dosed 52 weeks, study length 128 weeks): 115 mg/kg/day
TD50 (mouse, strain Swiss, males, by gavage, site: liver, lesion: hepatoma, benign, dosed 52 weeks, study length 128 weeks): 45.4 mg/kg/day
TD50 (mouse, strain Swiss, males, by gavage, site: liver, lesion: several types, types named in the paper, dosed 52 weeks, study length 128 weeks): 31.4 mg/kg/day
TD50 (mouse, strain Swiss, males, by gavage, site: lung, lesion: adenocarcinoma, dosed 52 weeks, study length 128 weeks): 5.52 mg/kg/day
TD50 (mouse, strain Swiss, males, by gavage, site: lung, lesion: adenoma, dosed 52 weeks, study length 128 weeks): 6.63 mg/kg/day
TD50 (mouse, strain Swiss, males, by gavage, site: lung, lesion: several types, types named in the paper, dosed 52 weeks, study length 128 weeks): 1.92 mg/kg/day
TD50 (mouse, strain Swiss, males, by gavage, site: preputial gland, lesion: several types, types named in the paper, dosed 52 weeks, study length 128 weeks): 6.51 mg/kg/day
TD50 (mouse, strain Swiss, males, by gavage, site: preputial gland, lesion: squamous-cell carcinoma, dosed 52 weeks, study length 128 weeks): 8.03 mg/kg/day
TD50 (mouse, strain Swiss, males, by gavage, site: preputial gland, lesion: squamous-cell papilloma, dosed 52 weeks, study length 128 weeks): 93.3 mg/kg/day
